In ChEMBL document CHEMBL3045725, “Synthesis and antimicrobial activity of some (3-phenyl-5-(1-phenyl-3-aryl-1H-pyrazol-4-yl)-4,5-dihydro-1H-pyrazol-1-yl)(pyridin-4-yl)methanones: new derivatives of 1,3,5-trisubstituted pyrazolines” (2013):
Values after ≈ are worked out from the molar mass of the structure shown.

Tests used:
Format in all cases: functional
Escherichia coli = assay: Antibacterial activity against Escherichia coli assessed as growth inhibition after 24 hr by NCCLS broth microdilution method
Candida tropicalis = assay: Antifungal activity against Candida tropicalis assessed as growth inhibition after 24 hr by NCCLS broth microdilution method
Bacillus pumilus = assay: Antibacterial activity against Bacillus pumilus assessed as growth inhibition after 24 hr by NCCLS broth microdilution method
Pseudomonas aeruginosa = assay: Antibacterial activity against Pseudomonas aeruginosa assessed as growth inhibition after 24 hr by NCCLS broth microdilution method
Aspergillus niger = assay: Antifungal activity against Aspergillus niger assessed as growth inhibition after 24 hr by NCCLS broth microdilution method
Staphylococcus aureus = assay: Antibacterial activity against Staphylococcus aureus assessed as growth inhibition after 24 hr by NCCLS broth microdilution method
Bacillus subtilis = assay: Antibacterial activity against Bacillus subtilis assessed as growth inhibition after 24 hr by NCCLS broth microdilution method
Candida albicans = assay: Antifungal activity against Candida albicans assessed as growth inhibition after 24 hr by NCCLS broth microdilution method
Aspergillus flavus = assay: Antifungal activity against Aspergillus flavus assessed as growth inhibition after 24 hr by NCCLS broth microdilution method

Structure (SMILES): O=C(c1ccncc1)N1N=C(c2ccccc2)CC1c1cn(-c2ccccc2)nc1-c1ccc(Cl)cc1 (racemic)
- MIC (Escherichia coli): 25 µg/mL (≈ 49.6 µM)
- MIC (Candida tropicalis): 100 µg/mL (≈ 198 µM)
- MIC (Bacillus pumilus): 25 µg/mL (≈ 49.6 µM)
- MIC (Pseudomonas aeruginosa): 25 µg/mL (≈ 49.6 µM)
- MIC (Aspergillus niger): > 200 µg/mL
- MIC (Staphylococcus aureus): 12.5 µg/mL (≈ 24.8 µM)
- MIC (Bacillus subtilis): 25 µg/mL (≈ 49.6 µM)
- MIC (Candida albicans): 100 µg/mL (≈ 198 µM)
- MIC (Aspergillus flavus): 200 µg/mL (≈ 397 µM)

Structure (SMILES): Cc1ccc(-c2nn(-c3ccccc3)cc2C2CC(c3ccccc3)=NN2C(=O)c2ccncc2)cc1 (racemic)
- MIC (Escherichia coli): 12.5 µg/mL (≈ 25.8 µM)
- MIC (Candida tropicalis): 50 µg/mL (≈ 103 µM)
- MIC (Bacillus pumilus): 12.5 µg/mL (≈ 25.8 µM)
- MIC (Pseudomonas aeruginosa): 25 µg/mL (≈ 51.7 µM)
- MIC (Aspergillus niger): 100 µg/mL (≈ 207 µM)
- MIC (Staphylococcus aureus): 6.25 µg/mL (≈ 12.9 µM)
- MIC (Bacillus subtilis): 12.5 µg/mL (≈ 25.8 µM)
- MIC (Candida albicans): 25 µg/mL (≈ 51.7 µM)
- MIC (Aspergillus flavus): 100 µg/mL (≈ 207 µM)

Structure (SMILES): O=C(O)c1cn(C2CC2)c2cc(N3CCNCC3)c(F)cc2c1=O [CIPROFLOXACIN]
- MIC (Escherichia coli): 3.12 µg/mL (≈ 9.43 µM)
- MIC (Bacillus pumilus): 3.12 µg/mL (≈ 9.43 µM)
- MIC (Pseudomonas aeruginosa): 3.12 µg/mL (≈ 9.43 µM)
- MIC (Staphylococcus aureus): 3.12 µg/mL (≈ 9.43 µM)
- MIC (Bacillus subtilis): 3.12 µg/mL (≈ 9.43 µM)

Structure (SMILES): O=C(c1ccncc1)N1N=C(c2ccccc2)CC1c1cn(-c2ccccc2)nc1-c1ccc(Br)cc1 (racemic)
- MIC (Escherichia coli): 50 µg/mL (≈ 91.2 µM)
- MIC (Candida tropicalis): 100 µg/mL (≈ 182 µM)
- MIC (Bacillus pumilus): 25 µg/mL (≈ 45.6 µM)
- MIC (Pseudomonas aeruginosa): 50 µg/mL (≈ 91.2 µM)
- MIC (Aspergillus niger): > 200 µg/mL
- MIC (Staphylococcus aureus): 12.5 µg/mL (≈ 22.8 µM)
- MIC (Bacillus subtilis): 25 µg/mL (≈ 45.6 µM)
- MIC (Candida albicans): 50 µg/mL (≈ 91.2 µM)
- MIC (Aspergillus flavus): 200 µg/mL (≈ 365 µM)

Structure (SMILES): O=C(c1ccncc1)N1N=C(c2ccccc2)CC1c1cn(-c2ccccc2)nc1-c1ccccc1 (racemic)
- MIC (Escherichia coli): 50 µg/mL (≈ 106 µM)
- MIC (Candida tropicalis): 200 µg/mL (≈ 426 µM)
- MIC (Bacillus pumilus): 50 µg/mL (≈ 106 µM)
- MIC (Pseudomonas aeruginosa): 50 µg/mL (≈ 106 µM)
- MIC (Aspergillus niger): 100 µg/mL (≈ 213 µM)
- MIC (Staphylococcus aureus): 25 µg/mL (≈ 53.2 µM)
- MIC (Bacillus subtilis): 50 µg/mL (≈ 106 µM)
- MIC (Candida albicans): 200 µg/mL (≈ 426 µM)
- MIC (Aspergillus flavus): > 200 µg/mL

Structure (SMILES): COc1ccccc1-c1nn(-c2ccccc2)cc1C1CC(c2ccccc2)=NN1C(=O)c1ccncc1 (racemic)
- MIC (Escherichia coli): 6.25 µg/mL (≈ 12.5 µM)
- MIC (Candida tropicalis): 6.25 µg/mL (≈ 12.5 µM)
- MIC (Bacillus pumilus): 6.25 µg/mL (≈ 12.5 µM)
- MIC (Pseudomonas aeruginosa): 6.25 µg/mL (≈ 12.5 µM)
- MIC (Aspergillus niger): 50 µg/mL (≈ 100 µM)
- MIC (Staphylococcus aureus): 6.25 µg/mL (≈ 12.5 µM)
- MIC (Bacillus subtilis): 6.25 µg/mL (≈ 12.5 µM)
- MIC (Candida albicans): 6.25 µg/mL (≈ 12.5 µM)
- MIC (Aspergillus flavus): 50 µg/mL (≈ 100 µM)

Structure (SMILES): OC(Cn1cncn1)(Cn1cncn1)c1ccc(F)cc1F [FLUCONAZOLE]
- MIC (Candida tropicalis): 6.25 µg/mL (≈ 20.4 µM)
- MIC (Aspergillus niger): 12.5 µg/mL (≈ 40.8 µM)
- MIC (Candida albicans): 3.12 µg/mL (≈ 10.2 µM)
- MIC (Aspergillus flavus): 12.5 µg/mL (≈ 40.8 µM)

Structure (SMILES): COc1ccc(-c2nn(-c3ccccc3)cc2C2CC(c3ccccc3)=NN2C(=O)c2ccncc2)cc1 (racemic)
- MIC (Escherichia coli): 6.25 µg/mL (≈ 12.5 µM)
- MIC (Candida tropicalis): 12.5 µg/mL (≈ 25 µM)
- MIC (Bacillus pumilus): 6.25 µg/mL (≈ 12.5 µM)
- MIC (Pseudomonas aeruginosa): 12.5 µg/mL (≈ 25 µM)
- MIC (Aspergillus niger): 50 µg/mL (≈ 100 µM)
- MIC (Staphylococcus aureus): 6.25 µg/mL (≈ 12.5 µM)
- MIC (Bacillus subtilis): 6.25 µg/mL (≈ 12.5 µM)
- MIC (Candida albicans): 12.5 µg/mL (≈ 25 µM)
- MIC (Aspergillus flavus): 50 µg/mL (≈ 100 µM)

Structure (SMILES): O=C(c1ccncc1)N1N=C(c2ccccc2)CC1c1cn(-c2ccccc2)nc1-c1ccc(F)cc1 (racemic)
- MIC (Escherichia coli): 12.5 µg/mL (≈ 25.6 µM)
- MIC (Candida tropicalis): 50 µg/mL (≈ 103 µM)
- MIC (Bacillus pumilus): 25 µg/mL (≈ 51.3 µM)
- MIC (Pseudomonas aeruginosa): 12.5 µg/mL (≈ 25.6 µM)
- MIC (Aspergillus niger): 200 µg/mL (≈ 410 µM)
- MIC (Staphylococcus aureus): 6.25 µg/mL (≈ 12.8 µM)
- MIC (Bacillus subtilis): 12.5 µg/mL (≈ 25.6 µM)
- MIC (Candida albicans): 50 µg/mL (≈ 103 µM)
- MIC (Aspergillus flavus): 200 µg/mL (≈ 410 µM)
